# According to article PMC5218480 (PLoS ONE, 2017):
# Test system: MV-4-11 cells
# Test: Gene expression microarray analysis (Affymetrix PrimeView) and GSEA
# Type: cell-based, human
# Design: RFU PODN (11730768_x_at) / Fold change /veh PODN (11730768_x_at) / RFU LINC00158 (11744669_a_at) / Fold change /veh LINC00158 (11744669_a_at) / RFU DUSP10 (11751237_a_at) / Fold change /veh DUSP10 (11751237_a_at) / RFU ID3 (11757404_x_at) / Fold change /veh ID3 (11757404_x_at) / RFU PLEKHG5 (11737974_s_at) / Fold change /veh PLEKHG5 (11737974_s_at) / RFU LRRC4B (11730491_at) / Fold change /veh LRRC4B (11730491_at) / RFU GIMAP4 (11747438_a_at) / Fold change /veh GIMAP4 (11747438_a_at) / RFU KRT8 (11758183_x_at) / Fold change /veh KRT8 (11758183_x_at) / RFU CNN1 (11734310_a_at) / Fold change /veh CNN1 (11734310_a_at) / RFU VPS37D (11726825_at) / Fold change /veh VPS37D (11726825_at) / RFU C10orf10 (11716522_x_at) / Fold change /veh C10orf10 (11716522_x_at) / RFU KIR2DL2 /// KIR2DL4 /// KIR2DL5A /// KIR2DL5B /// KIR2DS1 /// KIR2DS2 /// KIR2DS3 /// KIR2DS4 /// KIR3DL3 /// KIR3DL3 /// KIR3DS1 (11738374_at) / Fold change /veh KIR2DL2 /// KIR2DL4 /// KIR2DL5A /// KIR2DL5B /// KIR2DS1 /// KIR2DS2 /// KIR2DS3 /// KIR2DS4 /// KIR3DL3 /// KIR3DL3 /// KIR3DS1 (11738374_at) / RFU C1QL1 (11718748_at) / Fold change /veh C1QL1 (11718748_at) / RFU TMPRSS4 (11747572_a_at) / Fold change /veh TMPRSS4 (11747572_a_at) / RFU HAMP (11756126_x_at) / Fold change /veh HAMP (11756126_x_at) / RFU RNFT2 (11725882_a_at) / Fold change /veh RNFT2 (11725882_a_at) / RFU NR4A2 (11747474_a_at) / Fold change /veh NR4A2 (11747474_a_at) / RFU ABCC12 (11746883_a_at) / Fold change /veh ABCC12 (11746883_a_at) / RFU TMEM136 (11760407_x_at) / Fold change /veh TMEM136 (11760407_x_at) / RFU CLDN22 /// WWC2 (11732394_at) / Fold change /veh CLDN22 /// WWC2 (11732394_at) / RFU HLA-DPB1 (11760878_x_at) / Fold change /veh HLA-DPB1 (11760878_x_at) / RFU SPINT1 (11716480_a_at) / Fold change /veh SPINT1 (11716480_a_at) / RFU GAP43 (11754022_s_at) / Fold change /veh GAP43 (11754022_s_at) / RFU A4GNT (11735810_at) / Fold change /veh A4GNT (11735810_at) / RFU PRB3 (11715151_x_at) / Fold change /veh PRB3 (11715151_x_at) / RFU TUBB4B (11761932_at) / Fold change /veh TUBB4B (11761932_at) / RFU CAPN14 (11732068_a_at) / Fold change /veh CAPN14 (11732068_a_at) / RFU TMCC2 (11721928_a_at) / Fold change /veh TMCC2 (11721928_a_at) / RFU IRGQ (11745062_a_at) / Fold change /veh IRGQ (11745062_a_at) / RFU FAM174B (11720279_a_at) / Fold change /veh FAM174B (11720279_a_at) / RFU TMPRSS4 (11748680_a_at) / Fold change /veh TMPRSS4 (11748680_a_at) / RFU FAM212B (11763350_a_at) / Fold change /veh FAM212B (11763350_a_at) / RFU PLEKHG5 (11743358_a_at) / Fold change /veh PLEKHG5 (11743358_a_at) / RFU ZSCAN30 (11745921_a_at) / Fold change /veh ZSCAN30 (11745921_a_at) / RFU CMKLR1 (11741424_a_at) / Fold change /veh CMKLR1 (11741424_a_at) / RFU LOC101060620 /// MAPK8IP1 (11723275_at) / Fold change /veh LOC101060620 /// MAPK8IP1 (11723275_at) / RFU SPTSSB (11747773_x_at) / Fold change /veh SPTSSB (11747773_x_at) / RFU PRSS12 (11739890_at) / Fold change /veh PRSS12 (11739890_at) / RFU BIN1 (11741810_x_at) / Fold change /veh BIN1 (11741810_x_at) / RFU WNT11 (11732464_a_at) / Fold change /veh WNT11 (11732464_a_at) / RFU C10orf10 (11716521_a_at) / Fold change /veh C10orf10 (11716521_a_at) / RFU C5orf56 (11738089_at) / Fold change /veh C5orf56 (11738089_at) / RFU CYB561 (11721691_x_at) / Fold change /veh CYB561 (11721691_x_at) / RFU ANKRD19P (11752326_a_at) / Fold change /veh ANKRD19P (11752326_a_at) / RFU OR2T12 /// OR2T33 /// OR2T8 (11738714_s_at) / Fold change /veh OR2T12 /// OR2T33 /// OR2T8 (11738714_s_at) / RFU VCAN (11748164_a_at) / Fold change /veh VCAN (11748164_a_at) / RFU JSRP1 (11732532_at) / Fold change /veh JSRP1 (11732532_at) / RFU KRTAP10-11 (11738290_x_at) / Fold change /veh KRTAP10-11 (11738290_x_at) / RFU MYO3A (11730013_a_at) / Fold change /veh MYO3A (11730013_a_at) / RFU EBF3 (11725865_a_at) / Fold change /veh EBF3 (11725865_a_at) / RFU CAMK2N1 (11719241_x_at) / Fold change /veh CAMK2N1 (11719241_x_at) / RFU C5orf56 (11738088_a_at) / Fold change /veh C5orf56 (11738088_a_at) / RFU OLFML3 (11715873_a_at) / Fold change /veh OLFML3 (11715873_a_at) / RFU LOC100653217 /// NTM (11731650_a_at) / Fold change /veh LOC100653217 /// NTM (11731650_a_at) / RFU MAPK11 (11762145_a_at) / Fold change /veh MAPK11 (11762145_a_at) / RFU FIZ1 (11724087_x_at) / Fold change /veh FIZ1 (11724087_x_at) / RFU OASL (11726364_x_at) / Fold change /veh OASL (11726364_x_at) / RFU SOX15 (11748057_x_at) / Fold change /veh SOX15 (11748057_x_at) / RFU CD79A (11719716_a_at) / Fold change /veh CD79A (11719716_a_at) / RFU HIST1H1D (11736915_at) / Fold change /veh HIST1H1D (11736915_at) / RFU CASKIN2 (11723855_a_at) / Fold change /veh CASKIN2 (11723855_a_at) / RFU LOC730098 (11760151_x_at) / Fold change /veh LOC730098 (11760151_x_at) / RFU OR4N2 (11742367_at) / Fold change /veh OR4N2 (11742367_at) / RFU PRRT2 (11749266_a_at) / Fold change /veh PRRT2 (11749266_a_at) / RFU SNX32 (11753110_a_at) / Fold change /veh SNX32 (11753110_a_at) / RFU CDHR5 (11726645_a_at) / Fold change /veh CDHR5 (11726645_a_at) / RFU RCAN1 (11760418_a_at) / Fold change /veh RCAN1 (11760418_a_at) / RFU FAM167A (11723789_a_at) / Fold change /veh FAM167A (11723789_a_at) / RFU FAM26E (11764081_at) / Fold change /veh FAM26E (11764081_at) / RFU ISYNA1 (11749810_s_at) / Fold change /veh ISYNA1 (11749810_s_at) / RFU ACY1 (11761880_at) / Fold change /veh ACY1 (11761880_at) / RFU 11764098_at / Fold change /veh 11764098_at / RFU SAMD14 (11745864_x_at) / Fold change /veh SAMD14 (11745864_x_at) / RFU NPB (11741838_a_at) / Fold change /veh NPB (11741838_a_at) / RFU TMPRSS6 (11731388_a_at) / Fold change /veh TMPRSS6 (11731388_a_at) / RFU KRTAP10-2 (11738614_at) / Fold change /veh KRTAP10-2 (11738614_at) / RFU ARHGAP8 /// PRR5-ARHGAP8 (11727945_x_at) / Fold change /veh ARHGAP8 /// PRR5-ARHGAP8 (11727945_x_at) / RFU KRTAP5-7 /// NADSYN1 (11734609_at) / Fold change /veh KRTAP5-7 /// NADSYN1 (11734609_at) / RFU RASL12 (11751679_a_at) / Fold change /veh RASL12 (11751679_a_at) / RFU CDKN2B (11736163_a_at) / Fold change /veh CDKN2B (11736163_a_at) / RFU PRF1 (11729649_at) / Fold change /veh PRF1 (11729649_at) / RFU, ZNF638 /// ZNF638-IT1 / Fold change vs veh, ZNF638 /// ZNF638-IT1 / RFU, PANK3 / Fold change vs veh, PANK3 / RFU, SH3YL1 / Fold change vs veh, SH3YL1 / RFU, ZEB2 / Fold change vs veh, ZEB2 / RFU, NRIP1 / Fold change vs veh, NRIP1 / RFU, PTTG1IP / Fold change vs veh, PTTG1IP / RFU, CAPN2 / Fold change vs veh, CAPN2 / RFU, MED14 / Fold change vs veh, MED14 / RFU, SNORA58 / Fold change vs veh, SNORA58 / RFU, C1orf63 / Fold change vs veh, C1orf63 / RFU, LRRFIP1 / Fold change vs veh, LRRFIP1 / RFU, NDUFAF7 / Fold change vs veh, NDUFAF7 / RFU, SLC12A2 / Fold change vs veh, SLC12A2 / RFU, IBTK / Fold change vs veh, IBTK / RFU, ESF1 / Fold change vs veh, ESF1 / Fold change vs veh, TMEM50B / RFU, TAOK1 / Fold change vs veh, TAOK1 / RFU, ACBD3 / Fold change vs veh, ACBD3 / RFU, TMA16 / Fold change vs veh, TMA16 / RFU, RWDD3 / Fold change vs veh, RWDD3 / RFU, BCAT1 / Fold change vs veh, BCAT1 / RFU, EDEM3 / Fold change vs veh, EDEM3 / RFU, TMEM33 / Fold change vs veh, TMEM33 / RFU, WDR75 / Fold change vs veh, WDR75 / RFU, AHCTF1 / Fold change vs veh, AHCTF1 / RFU, TFRC / Fold change vs veh, TFRC / RFU, ZDHHC17 / Fold change vs veh, ZDHHC17 / RFU, NOM1 / Fold change vs veh, NOM1 / RFU, ARL8B / Fold change vs veh, ARL8B / RFU, ZBTB11 / Fold change vs veh, ZBTB11 / RFU, TAMM41 / Fold change vs veh, TAMM41 / RFU, KIAA1704 /// LOC100996395 / Fold change vs veh, KIAA1704 /// LOC100996395 / RFU, ING1 / Fold change vs veh, ING1 / RFU, TRMT61B / Fold change vs veh, TRMT61B / RFU, FUBP3 / Fold change vs veh, FUBP3 / RFU, TP53 / Fold change vs veh, TP53 / RFU, TNKS2 / Fold change vs veh, TNKS2 / RFU, ZFP14 / Fold change vs veh, ZFP14 / RFU, ACTR2 / Fold change vs veh, ACTR2 / RFU, PPP3R1 / Fold change vs veh, PPP3R1 / RFU, PIK3R1 / Fold change vs veh, PIK3R1 / RFU, HNRNPA1 / Fold change vs veh, HNRNPA1 / RFU, RNF170 / Fold change vs veh, RNF170 / RFU, ZNF28 / Fold change vs veh, ZNF28 / RFU, RNGTT / Fold change vs veh, RNGTT / RFU, OGT / Fold change vs veh, OGT / RFU, BRD1 / Fold change vs veh, BRD1 / RFU, MARS / Fold change vs veh, MARS / RFU, ZNF655 / Fold change vs veh, ZNF655 / RFU, FAHD1 / Fold change vs veh, FAHD1 / RFU, BDP1 / Fold change vs veh, BDP1 / RFU, LRRCC1 / Fold change vs veh, LRRCC1 / RFU, ARID1A / Fold change vs veh, ARID1A / RFU, ZNF146 / Fold change vs veh, ZNF146 / RFU, ZNF330 / Fold change vs veh, ZNF330 / RFU, GPN3 / Fold change vs veh, GPN3 / RFU, C9orf123 / Fold change vs veh, C9orf123 / RFU, N4BP2L2 / Fold change vs veh, N4BP2L2 / RFU, ARFIP1 / Fold change vs veh, ARFIP1 / RFU, FAM179B / Fold change vs veh, FAM179B / RFU, BCL10 / Fold change vs veh, BCL10 / RFU, UHRF1BP1L / Fold change vs veh, UHRF1BP1L / RFU, BET1 / Fold change vs veh, BET1 / RFU, CNOT2 / Fold change vs veh, CNOT2 / RFU, ZNF268 / Fold change vs veh, ZNF268 / Fold change vs veh, ZNF507 / RFU, DGCR2 / Fold change vs veh, DGCR2 / RFU, WDSUB1 / Fold change vs veh, WDSUB1 / Fold change vs veh, HSP90B1 /// MIR3652 / RFU, ADSS / Fold change vs veh, ADSS / RFU, GK / Fold change vs veh, GK / RFU, ZNF148 / Fold change vs veh, ZNF148 / RFU, TAF9 / Fold change vs veh, TAF9 / RFU, SLC1A5 / Fold change vs veh, SLC1A5 / RFU, SLMO2 / Fold change vs veh, SLMO2 / RFU, ABCC4 / Fold change vs veh, ABCC4 / RFU, LOC101060439 /// RAP1B / Fold change vs veh, LOC101060439 /// RAP1B / RFU, RFX7 / Fold change vs veh, RFX7 / RFU, GTPBP10 / Fold change vs veh, GTPBP10 / RFU, CNEP1R1 / Fold change vs veh, CNEP1R1 / RFU, BIVM-ERCC5 /// ERCC5 / Fold change vs veh, BIVM-ERCC5 /// ERCC5 / RFU, ILF3 / Fold change vs veh, ILF3 / RFU 11762660_at / Fold change /veh 11762660_at / RFU VCAN (11757783_s_at) / Fold change /veh VCAN (11757783_s_at) / RFU DDX43 (11728927_at) / Fold change /veh DDX43 (11728927_at) / RFU KRT8 (11758188_x_at) / Fold change /veh KRT8 (11758188_x_at) / RFU NKD1 (11759106_at) / Fold change /veh NKD1 (11759106_at) / RFU SRD5A1 (11742802_a_at) / Fold change /veh SRD5A1 (11742802_a_at) / RFU TPSAB1 /// TPSB2 (11721975_s_at) / Fold change /veh TPSAB1 /// TPSB2 (11721975_s_at) / RFU GSTM3 (11746129_a_at) / Fold change /veh GSTM3 (11746129_a_at) / RFU IL23R (11737362_x_at) / Fold change /veh IL23R (11737362_x_at) / RFU TMEM51 (11727254_a_at) / Fold change /veh TMEM51 (11727254_a_at) / RFU PIWIL2 (11732686_x_at) / Fold change /veh PIWIL2 (11732686_x_at) / RFU ORM1 (11744905_x_at) / Fold change /veh ORM1 (11744905_x_at) / RFU CCDC152 (11743942_at) / Fold change /veh CCDC152 (11743942_at) / RFU ECM1 (11717891_a_at) / Fold change /veh ECM1 (11717891_a_at) / RFU IL23R (11748794_a_at) / Fold change /veh IL23R (11748794_a_at) / RFU TNFAIP8L3 (11732012_x_at) / Fold change /veh TNFAIP8L3 (11732012_x_at) / RFU MBOAT4 (11741988_at) / Fold change /veh MBOAT4 (11741988_at) / RFU 11764193_at / Fold change /veh 11764193_at / RFU TMEM53 (11763286_at) / Fold change /veh TMEM53 (11763286_at) / RFU MAGEB2 (11727129_at) / Fold change /veh MAGEB2 (11727129_at) / RFU TMEM200A (11744735_a_at) / Fold change /veh TMEM200A (11744735_a_at) / RFU CCDC152 (11751479_a_at) / Fold change /veh CCDC152 (11751479_a_at) / RFU FAM211A (11726209_a_at) / Fold change /veh FAM211A (11726209_a_at) / RFU RGS16 (11746705_a_at) / Fold change /veh RGS16 (11746705_a_at) / RFU VCAN (11755009_s_at) / Fold change /veh VCAN (11755009_s_at) / RFU RHOB (11743442_s_at) / Fold change /veh RHOB (11743442_s_at) / RFU RGS16 (11720943_a_at) / Fold change /veh RGS16 (11720943_a_at) / RFU RGS16 (11720944_at) / Fold change /veh RGS16 (11720944_at) / RFU, VPS4B / Fold change vs veh, VPS4B / RFU, CREB1 / Fold change vs veh, CREB1 / RFU, DNAJC13 / Fold change vs veh, DNAJC13 / RFU, GNAQ / Fold change vs veh, GNAQ / RFU, CDK5R1 / Fold change vs veh, CDK5R1 / RFU, ZRANB3 / Fold change vs veh, ZRANB3 / RFU, CUL4A / Fold change vs veh, CUL4A / RFU, CCNY / Fold change vs veh, CCNY / RFU, UFL1 / Fold change vs veh, UFL1 / RFU, COG3 / Fold change vs veh, COG3 / RFU, DIAPH2 / Fold change vs veh, DIAPH2 / RFU, SKA2 / Fold change vs veh, SKA2 / RFU, AFF3 / Fold change vs veh, AFF3 / RFU, LMF1 / Fold change vs veh, LMF1 / RFU, IPO11 / Fold change vs veh, IPO11 / RFU, DFFB / Fold change vs veh, DFFB / RFU, FOXP1 / Fold change vs veh, FOXP1 / RFU, CARD8 / Fold change vs veh, CARD8 / RFU, STRN3 / Fold change vs veh, STRN3 / RFU, ADK / Fold change vs veh, ADK / RFU, RASSF2 / Fold change vs veh, RASSF2 / RFU, WIPF1 / Fold change vs veh, WIPF1 / RFU, LARP1B / Fold change vs veh, LARP1B / RFU, RASA1 / Fold change vs veh, RASA1 / RFU, RB1 / Fold change vs veh, RB1 / RFU, PPFIA1 / Fold change vs veh, PPFIA1 / RFU, MAT2A / Fold change vs veh, MAT2A / RFU, CCT5 / Fold change vs veh, CCT5 / RFU, WDR92 / Fold change vs veh, WDR92 / RFU, CUX1 / Fold change vs veh, CUX1 / RFU, TTC7A / Fold change vs veh, TTC7A / RFU, TMEM135 / Fold change vs veh, TMEM135 / RFU, DEPTOR / Fold change vs veh, DEPTOR / RFU, CPM / Fold change vs veh, CPM / RFU, DNAJB6 / Fold change vs veh, DNAJB6 / RFU, CACNA2D3 / Fold change vs veh, CACNA2D3 / RFU, DTX4 / Fold change vs veh, DTX4 / RFU, TFCP2 / Fold change vs veh, TFCP2 / RFU, GMCL1 /// GMCL1P1 / Fold change vs veh, GMCL1 /// GMCL1P1 / RFU, AEBP2 / Fold change vs veh, AEBP2 / RFU, SNHG1 /// SNORD22 /// SNORD25 /// SNORD26 /// SNORD27 /// SNORD28 /// SNORD29 /// SNORD31 / Fold change vs veh, SNHG1 /// SNORD22 /// SNORD25 /// SNORD26 /// SNORD27 /// SNORD28 /// SNORD29 /// SNORD31 / Fold change (Aza/veh), C12orf56 (ProbeSet 11735607_a_at) / Fold change (ACY-1035/veh), C12orf56 (ProbeSet 11735607_a_at) / Fold change (Aza/veh), FGFR1OP (ProbeSet 11751329_s_at) / Fold change (ACY-1035/veh), FGFR1OP (ProbeSet 11751329_s_at) / Fold change (Aza/veh), VPS36 (ProbeSet 11739960_a_at) / Fold change (ACY-1035/veh), VPS36 (ProbeSet 11739960_a_at) / RFU SYPL1 (11715823_x_at) / Fold change /veh SYPL1 (11715823_x_at) / RFU IGFBP7 (11715501_s_at) / Fold change /veh IGFBP7 (11715501_s_at) / RFU REEP3 (11722064_at) / Fold change /veh REEP3 (11722064_at) / RFU IGLL1 (11728026_x_at) / Fold change /veh IGLL1 (11728026_x_at): dose or concentration left out as unconfirmed
# Details: MV-4-11 cells, 48 hours
structure (smiles),measurement,value
Nc1ncn([C@@H]2O[C@H](CO)[C@@H](O)[C@H]2O)c(=O)n1 [azacitidine],RFU GIMAP4 (11747438_a_at),6.50 RFU
